Data reported in paper PMC9130233, “An inhibitor of RORγ for chronic pulmonary obstructive disease treatment” (Scientific Reports, 2022).
Like-named read-outs stand apart in the source and are kept apart here.

What was measured:
[1] = system: IL-17A release in human PBMC; experiment: IL-17A release, human PBMC, anti-CD3 + anti-CD28; type: cell-based
Excerpt: Inhibition of RORγ by PCCR-1 was also estimated in a functional assay by measuring the inhibition of Th17 dependent cytokine IL-17A release in human peripheral blood mononuclear cells (PBMCs), mouse splenocytes and canine PBMC stimulated with their respective anti-CD3 and anti-CD28 antibodies.
Human whole blood from healthy subjects were procured from Clinical Research Unit, Sanpada. Clinical Research Center Glenmark (Plot No. D, 508, Turbhe, TTC Industrial Area, MIDC, Sanpada, Navi Mumbai, Maharashtra 400705, India). PBMCs were isolated using heparinized blood with Ficoll Histopaque. Briefly, the cells were seeded in 96-well plate pre-coated with human anti-CD3 mAb (10 µg/mL), post 30 min of compound treatment cells were stimulated with human anti-CD28 mAb (2 µg/mL). After 72 h of culture, the supernatant was collected for Th1/Th2 cytokines; IFN-γ, IL-2, IL-4 and IL-10 and measured by ELISA. For Th17 polarization assay, the following cytokine cocktail was used: IL-1β (10 ng/ml), IL-23(10 ng/ml), IL-6 (50 ng/ml), TGF-β1 (3 ng/ml), IL-2 (20U/ml) and supernatants were used for measuring IL-17 and IL-22 by ELISA.

[2] = Toxicokinetics (blood), 14-day inhalation study in Sprague Dawley rats; type: in vivo, rat; conditions: for half-life / AUC(0-t) / Cmax / Tmax: inhaled or intranasal; for half-life / AUC(0-t) / Cmax: inhalation; for AUC(0-t): read-out: AUC0-tlast, mean (SE); for Cmax: read-out: Cmax, mean (SE)
Method: Rats were exposed to PCCR-1 aerosols at 3.4, 10.8 and 32.1 mg/kg/day (delivered dose) for 60 min daily for 14 days using a snout only exposure technique via a modular stainless steel flow past inhalation chamber at indicated doses as mentioned in Table 3. No treatment-related findings noted, including myeloid:erythroid (M:E) ratios in any dose levels except minimal changes in the reticulocytes and adrenal glands.
The TK assessment was done by measuring the concentrations of PCCR-1 in blood.
The toxicology study was done in SD (Sprague Dawley) rats that were exposed to PCCR-1 aerosol for 60 min daily at 3.4, 10.8 and 32.1 mg/kg/day (delivered dose) for 14 days using a snout only exposure technique via a modular stainless steel flow past inhalation chamber. A 60% w/w blend of PCCR-1 in Lactose LH201 was prepared by adding the appropriate amount of PCCR-1 to the appropriate amount of lactose. The estimated delivered doses were derived based on analytical aerosol concentration, and respiratory minute volume calculated based on body weight, exposure duration, and animal body weight (Supplementary section B).

[3] = system: IL-17 cytokine from rat splenocytes; experiment: IL-17 inhibition, rat splenocytes; type: cell-based; conditions: Splenocyte, read-out: potency, rat IL-17 inhibition
[4] = system: IL-17 release from COPD lung BALf cells; experiment: IL-17 release, BALf cells from COPD patients; type: cell-based; conditions: Homo sapiens; TCR stimulated, n = 10; read-out: IL-17 IC50, COPD patient's sample: BAL
Method: Whole blood and BAL samples from COPD patients were obtained from Multispecialty hospital, Mumbai post approval from ethics committee and informed consent of patients. 30–40 mL Broncho alveolar lavage (BALf) was collected per patient and stored in ice. Blood was collected in heparin vaccutainer as per approved protocol. Both the samples were processed within 2 h of collection. BALF was passed through 100-µm and 40-µm cell strainer to remove debris and mucus, the samples were centrifuged and the cells were re-suspended in RPMI 1640 complete medium. PBMCs from blood were isolated using Histopaque-1077 by density gradient centrifugation. Isolated BAL cells and PBMCs were seeded in 96 well coated with 10 µg/ml anti-CD3 and 2 µg/ml anti-CD2. Cells were further treated with different concentration of test compound for 60 min followed by stimulation with 20 µg/ml anti-CD28 and incubated for 48–72 h. The supernatant was used for estimating IL-17 by ELISA.

[5] = both sexes, Sprague Dawley, rat, blood, 10.8 mg/kg/day, SD rat blood, 10.8 mg/kg/day, Day 1, Mean
[6] = both sexes, Sprague-Dawley, rat, blood, 3.4 mg/kg/day, SD rat blood, 3.4 mg/kg/day, Day 1, Mean
[7] = both sexes, Sprague-Dawley, rat, blood, 3.4 mg/kg/day, SD rat blood, 3.4 mg/kg/day, Day 14, Mean
[8] = both sexes, Sprague-Dawley, rat, in vivo, 32.1 mg/kg/day, SD rat blood, 32.1 mg/kg/day, Day 1, Mean
[9] = both sexes, Sprague-Dawley, rat, in vivo, 32.1 mg/kg/day, SD rat blood, 32.1 mg/kg/day, Day 14, Mean
[10] = both sexes, Sprague-Dawley, rat, whole blood, 10.8 mg/kg/day, SD rat blood, 10.8 mg/kg/day, Day 14, Mean
[11] = female, Sprague-Dawley, rat, blood, 3.4 mg/kg/day, SD rat blood, 3.4 mg/kg/day, Day 1, Female
[12] = female, Sprague-Dawley, rat, blood, 3.4 mg/kg/day, SD rat blood, 3.4 mg/kg/day, Day 14, Female
[13] = female, Sprague-Dawley, rat, blood, 10.8 mg/kg/day, SD rat blood, 10.8 mg/kg/day, Day 1, Female
[14] = female, Sprague-Dawley, rat, in vivo, 32.1 mg/kg/day, SD rat blood, 32.1 mg/kg/day, Day 1, Female
[15] = female, Sprague-Dawley, rat, in vivo, 32.1 mg/kg/day, SD rat blood, 32.1 mg/kg/day, Day 14, Female
[16] = female, Sprague-Dawley, rat, whole blood, 10.8 mg/kg/day, SD rat blood, 10.8 mg/kg/day, Day 14, Female
[17] = male, Sprague Dawley, rat, blood, 10.8 mg/kg/day, SD rat blood, 10.8 mg/kg/day, Day 1, Male
[18] = male, Sprague-Dawley, rat, blood, 3.4 mg/kg/day, SD rat blood, 3.4 mg/kg/day, Day 1, Male
[19] = male, Sprague-Dawley, rat, blood, 3.4 mg/kg/day, SD rat blood, 3.4 mg/kg/day, Day 14, Male
[20] = male, Sprague-Dawley, rat, in vivo, 32.1 mg/kg/day, SD rat blood, 32.1 mg/kg/day, Day 1, Male
[21] = male, Sprague-Dawley, rat, in vivo, 32.1 mg/kg/day, SD rat blood, 32.1 mg/kg/day, Day 14, Male
[22] = male, Sprague-Dawley, rat, whole blood, 10.8 mg/kg/day, SD rat blood, 10.8 mg/kg/day, Day 14, Male
[23] = rat blood, mid and high dose levels

CCn1c(C(C)(C)Oc2ccc(F)cc2F)nc2cc(NC(=O)Cc3ccc(S(=O)(=O)CC)cc3)ccc21 [PCCR-1] gave an IC50 ([1]; TCR activating conditions, comparative Th1/Th2/Th17 study (Fig. 3A), read-out: hIL-17 (IL-17A) IC50) of 0.0943 µM, an IC50 ([1]; anti-CD3 + anti-CD28, n = 24 (Fig. 1D), read-out: Cellular activity: Human IC50, IL-17A release) of 0.117 µM and a half-life ([2]; Sprague-Dawley, in vivo, SD rat blood, 32.1 mg/kg/day, Day 1, Female) of 6.9 h. For the same molecule, the half-life ([2]; Sprague-Dawley, in vivo, SD rat blood, 32.1 mg/kg/day, Day 1, Male) was 6.8 h, the AUC(0-t) [2, 5] was 5.09 µg·h/mL and the Cmax [2, 5] was 0.457 µg/mL. For the same molecule, the Tmax ([2]; both sexes, Sprague Dawley, rat, blood, 10.8 mg/kg/day, from start of inhalation dosing, SD rat blood, 10.8 mg/kg/day, Day 1, Mean) was 3 h, the half-life ([2]; both sexes, Sprague-Dawley, in vivo, SD rat blood, 32.1 mg/kg/day, Day 1, Mean) was 6.8 h and the AUC(0-t) [2, 6] was 0.982 µg·h/mL. It also gave a Cmax [2, 6] of 0.189 µg/mL, a half-life [2, 7] of 6.4 h and an AUC(0-t) [2, 7] of 2.56 µg·h/mL. The Cmax [2, 7] was 0.215 µg/mL, the Tmax ([2]; both sexes, Sprague-Dawley, rat, blood, 3.4 mg/kg/day, from start of inhalation dosing, SD rat blood, 3.4 mg/kg/day, Day 1, Mean) was 3 h and the Tmax ([2]; both sexes, Sprague-Dawley, rat, blood, 3.4 mg/kg/day, from start of inhalation dosing, SD rat blood, 3.4 mg/kg/day, Day 14, Mean) was 4 h. The AUC(0-t) [2, 8] was 7.44 µg·h/mL, the Cmax [2, 8] was 0.735 µg/mL and the AUC(0-t) [2, 9] was 12.2 µg·h/mL. The Cmax [2, 9] was 1.02 µg/mL, the half-life ([2]; both sexes, Sprague-Dawley, rat, whole blood, 10.8 mg/kg/day, SD rat blood, 10.8 mg/kg/day, Day 1, Mean) was 5.9 h and the half-life [2, 10] was 5.1 h. It also gave an AUC(0-t) [2, 10] of 6.75 µg·h/mL, a Cmax [2, 10] of 0.519 µg/mL and a Tmax ([2]; both sexes, Sprague-Dawley, rat, whole blood, 10.8 mg/kg/day, from start of inhalation dosing, SD rat blood, 10.8 mg/kg/day, Day 14, Mean) of 4 h. For the same molecule, the tlast ([2]; both, Sprague-Dawley, rat, in vivo, 3.4 mg/kg/day) was 25.0 h, the tlast ([2]; both, Sprague-Dawley, rat, in vivo, 10.8 mg/kg/day) was 25.0 h and the AUC(0-t) [2, 11] was 1 µg·h/mL. It also gave a Cmax [2, 11] of 0.202 µg/mL, an AUC(0-t) [2, 12] of 2.61 µg·h/mL and a Cmax [2, 12] of 0.241 µg/mL. The Tmax ([2]; female, Sprague-Dawley, rat, blood, 3.4 mg/kg/day, from start of inhalation dosing, SD rat blood, 3.4 mg/kg/day, Day 1, Female) was 3 h, the Tmax ([2]; female, Sprague-Dawley, rat, blood, 3.4 mg/kg/day, from start of inhalation dosing, SD rat blood, 3.4 mg/kg/day, Day 14, Female) was 5 h and the half-life [2, 13] was 5.8 h. It also gave an AUC(0-t) [2, 13] of 7.27 µg·h/mL, a Cmax [2, 13] of 0.544 µg/mL and a Tmax ([2]; female, Sprague-Dawley, rat, blood, 10.8 mg/kg/day, from start of inhalation dosing, SD rat blood, 10.8 mg/kg/day, Day 1, Female) of 3 h. The tlast ([2]; female, Sprague-Dawley, rat, in vivo, 3.4 mg/kg/day) was 25.0 h, the tlast ([2]; female, Sprague-Dawley, rat, in vivo, 10.8 mg/kg/day) was 25.0 h and the AUC(0-t) [2, 14] was 9.47 µg·h/mL. For the same molecule, the Cmax [2, 14] was 0.936 µg/mL, the AUC(0-t) [2, 15] was 16.2 µg·h/mL and the Cmax [2, 15] was 1.15 µg/mL. The half-life [2, 16] was 5.1 h, the AUC(0-t) [2, 16] was 8.05 µg·h/mL and the Cmax [2, 16] was 0.679 µg/mL. For the same molecule, the Tmax ([2]; female, Sprague-Dawley, rat, whole blood, 10.8 mg/kg/day, from start of inhalation dosing, SD rat blood, 10.8 mg/kg/day, Day 14, Female) was 3 h, the tlast ([2]; from start of inhalation dosing, SD rat blood, 3.4 mg/kg/day, Day 1, Female) was 9.0 h and the tlast ([2]; from start of inhalation dosing, SD rat blood, 3.4 mg/kg/day, Day 1, Male) was 9.0 h. For the same molecule, the tlast ([2]; from start of inhalation dosing, SD rat blood, 3.4 mg/kg/day, Day 1, Mean) was 9.0 h, the tlast ([2]; from start of inhalation dosing, SD rat blood, 32.1 mg/kg/day, Day 1, Female) was 25.0 h and the tlast ([2]; from start of inhalation dosing, SD rat blood, 32.1 mg/kg/day, Day 1, Male) was 25.0 h. The tlast ([2]; from start of inhalation dosing, SD rat blood, 32.1 mg/kg/day, Day 1, Mean) was 25.0 h, the tlast ([2]; from start of inhalation dosing, SD rat blood, 32.1 mg/kg/day, Day 14, Female) was 25.0 h and the tlast ([2]; from start of inhalation dosing, SD rat blood, 32.1 mg/kg/day, Day 14, Male) was 25.0 h. It also gave a tlast ([2]; from start of inhalation dosing, SD rat blood, 32.1 mg/kg/day, Day 14, Mean) of 25.0 h, a half-life [2, 17] of 6 h and an AUC(0-t) [2, 17] of 2.91 µg·h/mL. It also gave a Cmax [2, 17] of 0.37 µg/mL, a Tmax ([2]; male, Sprague Dawley, rat, blood, 10.8 mg/kg/day, from start of inhalation dosing, SD rat blood, 10.8 mg/kg/day, Day 1, Male) of 3 h and a tlast ([2]; male, Sprague Dawley, rat, in vivo, 10.8 mg/kg/day) of 25.0 h. The AUC(0-t) [2, 18] was 0.963 µg·h/mL, the Cmax [2, 18] was 0.177 µg/mL and the half-life [2, 19] was 6.4 h. For the same molecule, the AUC(0-t) [2, 19] was 2.5 µg·h/mL, the Cmax [2, 19] was 0.19 µg/mL and the Tmax ([2]; male, Sprague-Dawley, rat, blood, 3.4 mg/kg/day, from start of inhalation dosing, SD rat blood, 3.4 mg/kg/day, Day 1, Male) was 3 h. For the same molecule, the Tmax ([2]; male, Sprague-Dawley, rat, blood, 3.4 mg/kg/day, from start of inhalation dosing, SD rat blood, 3.4 mg/kg/day, Day 14, Male) was 3 h, the tlast ([2]; male, Sprague-Dawley, rat, in vivo, 3.4 mg/kg/day) was 25.0 h and the tlast ([2]; male, Sprague-Dawley, rat, in vivo, 10.8 mg/kg/day) was 25.0 h. It also gave an AUC(0-t) [2, 20] of 5.41 µg·h/mL, a Cmax [2, 20] of 0.533 µg/mL and an AUC(0-t) [2, 21] of 8.23 µg·h/mL. It also gave a Cmax [2, 21] of 0.885 µg/mL, an AUC(0-t) [2, 22] of 5.44 µg·h/mL and a Cmax [2, 22] of 0.359 µg/mL. The Tmax ([2]; male, Sprague-Dawley, rat, whole blood, 10.8 mg/kg/day, from start of inhalation dosing, SD rat blood, 10.8 mg/kg/day, Day 14, Male) was 5 h, the “AUC in blood accumulation relative to day-1” value ([2]; once-daily inhalation for 14 days, except female rats at 10.8 mg/kg/day) was 1.5–2.6 fold and the “AUC in females higher than males” value [2, 23] was 1.5–2.5 fold. For the same molecule, the “Cmax in females higher than males” value [2, 23] was 1.3–1.9 fold, the IC50 [3] was 0.0806 µM and the IC50 [4] was 0.522 µM.
